From US20070003542A1, “Methods for treating diseases or conditions with peptide constructs” (priority 2002, published 2007) come the findings set out here.

Values joined by “and” are separate entries in the source; they are usually repeats but may differ in a detail not shown here. Equal values may be shown once.

For experiment [1], the system named is Plasmodium yoelii sporozoites. Nature of the experiment: malaria protection assay, sporozoite challenge of immunized mice. Type of experiment: in vivo. As to conditions: for Protection: 25 μg 2 times at 3 week intervals in TiterMax, 100 sporozoites. As for the experimental part: In particular, mice were immunized twice at three week intervals with 25 μg of the subunits (W or G) used to make the L.E.A.P.S.™ construct (GW), and were challenged with 200 plasmodium yoelii sporozoites 2 weeks after the second immunization. Protective efficacy was evaluated by thin blood smears every other day starting 4 days after the challenge. Mice were considered protected if no blood stage parasites were detectable by 14 days after challenge.
(§1) Next using another antigen with B and T cell activity two inbred strains of mice, (A/J and Balb/c) were immunized twice at three week intervals with the L.E.A.P.S.™ constructs (J-GF/SF or der-SF/GF) or with the subunits (SF/GF, J and derG) used to make heteroconjugated peptides, and were challenged with 100 Plasmodium yoelii sporozoites 2 weeks after the second immunization and protection efficacy evaluated as before. Four days before challenge, serum was collected from individual animals, pooled and analyzed immediately for antibody to SF/GF peptide sera collected from immunized and protected mice 15 days post challenge were pooled and used for IFN-γ determination by ELISA procedures.
Groups of 10 mice were pre-treated 2 times at 3 week intervals with 25 μg of derG in TiterMax™ adjuvant and challenged with 100 Plasmodium yoelii sporozoites. Protective efficacy was evaluated as described above.

In a further experiment the test system is SF/GF peptide. Nature of the experiment: serum antibody ELISA to SF/GF peptide. The class given is in vivo, mice. More on the design: scale not given here. The note with it: serum pool four days before challenge.
Description: as §1

A further experiment concerns IFN-γ. Kind of experiment: serum IFN-γ determination by ELISA. Type of experiment: in vivo. As to conditions: A/J mice, serum pool 15 days post challenge.
Description: as §1
A general note: An ELISA detects its analyte on a solid surface through an enzyme-linked reagent.

In a further experiment the test system is B16 melanoma. Nature of the experiment: allogeneic murine B16 melanoma protection model. Type of experiment: in vivo, mice. The note with it: in combination with allogeneic K1735 cells; B16 challenge; two experiments. How it is done: In particular, C57/b16 (H2^b) mice are vaccinated with the allogeneic melanoma K1735 (H2^k) at least twice on weekly intervals and then challenged with syngeneic B16 (H2^b) tumors. […] This is clear evidence of cross-priming and the existence of shared antigens.
Peptide constructs were prepared using as T cell binding ligand, either derG (SEQ ID NO. 7), Peptide G (SEQ ID NO. 5). The peptides are synthesized using the FMOC procedure and a double coupling protocol for the first 8 residues. Usually the peptide is prepared with the carboxyl terminus as an amide form. All of the peptides are purified using preparative HPLC, and analyzed by an analytical HPLC, amino acid analysis and mass spectrophotometer. The peptides are greater than 95%, usually greater than 98%, pure by HPLC criteria. The dry peptides are stored in vials with desiccant at −8° C. • 1) Eight groups of seven mice were injected with 200 μl of the vaccine as shown in FIG. 1. • 2) This was repeated after 7 days. • 3) A further 7 days later, mice were challenged with 200 μl saline containing 5×10^4 live B16 on the contralateral side to vaccination. • 4) Mice were sacrificed when tumor size exceeded 15 mm in either axis.
In order more precisely model the use of clinical allogeneic vaccines, a frozen vaccine was used in the mouse model wherein K-1735 cells were thawed just prior to use. […]

A further experiment has as its system HSV-1. Nature of the experiment: scarification zosteriform spread model of HSV infection. The class given is in vivo. As to conditions: A/J mice. As for the experimental part:
Groups of 4- to 6-wk old female A/J mice were subcutaneously inoculated once with 25 μg of the derG peptide emulsified in ISA51 adjuvant at a 1:1 ratio before challenge unless otherwise specified. Untreated mice and mice treated with adjuvant served as additional controls. The mice were challenged as specified in methods well known to those of ordinary skill in the art and as exemplified by Goel et al. (“The Ability of an HSV Strain to Initiate Zosteriform Spread Correlates with its Neuroinvasive Disease Potential”, Arch Virol 147:763-773 (2002)) and Goel et al., (“A Modification Of The Epidermal Scarification Model Of Herpes Simplex Virus Infection To Achieve A Reproducible And Uniform Progression Of Disease”, J Virol Meth 106; 153-8 (2002)).
In particular, hair is removed by shaving and then Nair® is applied. Twenty-fours later the depilated back of a mouse is scratched or abraded to expose the susceptible epidermal layer and virus rubbed in. To provide more detail, 10 μl of a virus suspension containing 6×10^4 plaque forming units was pipetted onto a 0.5 cm square of skin on mouse dorsal surface, which was previously abraded using sand paper glued on a pencil eraser. In untreated animals, the primary lesion developed at the inoculation site within 3 days and spread to the associated root, followed by anterograde transport and formation of secondary lesions at sites along the dermatome of the nerves within 5 days. In severe cases, animals died within 8 days post viral challenge. Disease progression and survival were monitored for at least 10 days. […] The progression and the severity of the lesions was scored from 0 to 7 (death). This model allows for discrimination of the disease progression (local site, neuronal spread, extent of lesion at the dermatome, death) at which the immune system blocks viral progression. In some experiments modifications in the timing, route of administration and mouse strain were evaluated for efficacy of CEL-1000.

Setting [2] is: A/J mice, dose 5 μg, 100 sporozoites (Table 5).
[3] abbreviates: A/J mice, dose 25 μg, 100 sporozoites (Table 5).
Setting [4] is: Balb/c mice, dose 25 μg, 100 sporozoites (Table 5).
Setting [5] is: A/J mice, dose 1.25 μg (Table 6).
Setting [6] is: A/J mice, dose 2.5 μg (Table 6).

With “DLLKNGERIEKVEGGG SFPMNEESPLGFSPEEMEAVASKFR [J-GF/SF]”, the “Protection (%)” value in experiment [1] (setting [2]) is 10%; in experiment [1] (A/J mice, dose 10 μg (Table 6)), 56%; in experiment [1] (setting [3]) it was 100%; in experiment [1] (setting [4]), 0%. The “Antibody EL1SA A490*” value in the experiment on SF/GF peptide (A/J mice, dose 5 μg) was 1,103; in the experiment on SF/GF peptide (A/J mice, dose 25 μg) it was 6,121; in the experiment with SF/GF peptide (Balb/c mice, dose 25 μg), 11,454.

As for SFPMNEESPLGFSPEEMEAVASKFR [GF/SF], the “Protection (%)” value is on record as 10% in experiment [1] (A/J mice, dose 5 μg (Table 6)); 30% in experiment [1] (setting [2]); 50% in experiment [1] (A/J mice, dose 10 μg (Table 6)); 100% in experiment [1] (setting [3]). The “Antibody EL1SA A490*” value in the experiment on SF/GF peptide (A/J mice, dose 5 μg) is listed as 8,443; in the experiment with SF/GF peptide (A/J mice, dose 25 μg), 19,970.

In the case of “DGQEEKAGVVSTGLIGGGSFPMNEESPLGFSPEEMEAVASKFR [derG-GF/SF]”, the “Protection (%)” value in experiment [1] (A/J mice, dose 5 μg (Table 6)) is on record as 10%; in experiment [1] (setting [2]), 80%; in experiment [1] (setting [3]), 100%; in experiment [1] (setting [4]), 0%. The “Antibody EL1SA A490*” value with SF/GF peptide (A/J mice, dose 5 μg) is given as 1,933; in the experiment on SF/GF peptide (A/J mice, dose 25 μg), 10,694; in the experiment on SF/GF peptide (Balb/c mice, dose 25 μg), 17,019.

Consider “DLLKNGERIEKVEGGG [J, short fragment from β2-microglobulin (a.a. 38-50)]”, for which the “Protection (%)” value in experiment [1] (setting [2]) came to 10%; in experiment [1] (A/J mice, dose 10 μg (Table 6)), 10%; in experiment [1] (setting [3]), 10%; in experiment [1] (setting [4]) it was 0%. Moreover, the “Antibody EL1SA A490*” value with SF/GF peptide (A/J mice, dose 5 μg) is 1; with SF/GF peptide (A/J mice, dose 25 μg) it was 2; in the experiment on SF/GF peptide (Balb/c mice, dose 25 μg) it was 2.

On to “DGQEEKAGVVSTGLIGGG [derG, modified fragment from MHC II β-chain (a.a. 135-149)]”, for which the IFN-γ serum in the experiment on IFN-γ (dose 5 μg) was 40,000 pg/mL; with IFN-γ (dose 25 μg), 18,000 pg/mL. Besides, the Protection in experiment [1] (A/J mice) was 80; in experiment [1] (BALB/c mice) it was 0; in experiment [1] (C3H mice), 40; in experiment [1] (CAF1 hybrid mice), 40; in the experiment on B16 melanoma, 30% and 40%; with HSV-1 (intramuscularly 2 weeks prior to challenge, without adjuvant, in aqueous solution), 100%. For the same sequence, the “Protection (%)” value in experiment [1] (setting [5]) came to 60%; in experiment [1] (setting [6]), 80%; in experiment [1] (A/J mice, dose 5 μg (Table 6)), 100%; in experiment [1] (setting [2]), 100%; in experiment [1] (setting [3]), 100%; in experiment [1] (setting [4]), 0%. In addition, the “Protection Protected/Tested” value in experiment [1] (setting [5]) is on record as 6/10; in experiment [1] (setting [6]), 9/10; in experiment [1] (A/J mice, dose 5 μg (Table 6)), 10/10; in experiment [1] (setting [2]), 10/10; in experiment [1] (setting [3]), 10/10; in experiment [1] (setting [4]), 0/10. For the same sequence, the “protection from lethal HSV-1 challenge” value with HSV-1 is reported as “protects A/J mice from lethal HSV-1 challenge”. For the same sequence, the “onset of symptoms, morbidity and mortality, zosteriform spread” value in the experiment with HSV-1 (single dose of 25 μg, timing of administration (FIG. 3)) is “delay in onset of symptoms”. For the same sequence, the “Antibody EL1SA A490*” value with SF/GF peptide (A/J mice, dose 5 μg) was determined as 2; in the experiment on SF/GF peptide (A/J mice, dose 25 μg), 2; in the experiment with SF/GF peptide (Balb/c mice, dose 25 μg), 4.
